The values below come from patent US6083932A, “Pharmaceutical compositions derived from ginseng and methods of treatment using same” (CV Technologies Inc., priority 1998, dated 2000).

Usually inhibition stands for how much of the control response was suppressed.

For one assay, the target named is T1, monoamine oxidase-B (Rattus norvegicus, UniProt P19643).
T1 construct: homogenates of rat brain; from tissue; host or cells: rat brain homogenate
T1 sequence (P19643 1-520): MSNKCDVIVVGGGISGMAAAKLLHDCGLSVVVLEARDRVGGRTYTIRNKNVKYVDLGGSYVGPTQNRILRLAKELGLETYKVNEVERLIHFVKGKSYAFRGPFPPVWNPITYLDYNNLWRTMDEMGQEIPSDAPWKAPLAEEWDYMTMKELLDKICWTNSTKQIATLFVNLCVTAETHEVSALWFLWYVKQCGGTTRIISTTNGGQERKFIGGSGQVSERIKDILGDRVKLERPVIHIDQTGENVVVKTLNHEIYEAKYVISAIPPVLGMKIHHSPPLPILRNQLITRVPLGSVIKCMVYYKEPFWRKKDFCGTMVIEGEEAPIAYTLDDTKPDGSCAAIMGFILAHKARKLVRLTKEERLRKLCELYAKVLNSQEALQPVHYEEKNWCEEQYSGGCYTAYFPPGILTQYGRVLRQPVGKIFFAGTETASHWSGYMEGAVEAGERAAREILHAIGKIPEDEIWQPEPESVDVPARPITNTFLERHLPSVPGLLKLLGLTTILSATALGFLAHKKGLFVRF
Put plainly: in vitro monoamine oxidase-B inhibiting activity (radiochemical, β-phenylethylamine substrate). The format is biochemical. The note with it: read-out: inhibition of monoamine oxidase B activity. As to the method: (§1) Example 1 is a study of the effects of several extracts of HT1001, PQ4, PQ5, PQ6 and pure ginsenosides, on monoamine oxidase A (MAO A) and monoamine oxidase B (MAO B) activity in vitro.
(§2) HT-1001, related extracts and pure ginsenosides were evaluated for in vitro monoamine oxidase-A and monoamine oxidase-B inhibiting activity using the radiochemical procedure of Lyles and Callingham, Biochem. Pharmacol. 31: 1417-1424 (1982), employing either radiolabelled 5-hydroxytryptamine or β-phenylethylamine as substrates for monoamine oxidase-A (MAO-A) or monoamine oxidase-B (MAO-B) respectively. Various concentrations of the compounds of interest were incubated in appropriately diluted homogenates of rat brain in a 0.2 M potassium phosphate buffer. After a 15 minute preincubation period the reaction was initiated by the addition of substrate. Incubations proceded at 37° C. for 10 minutes. Incubation was terminated by the addition of acid and the radiolabelled products (5-hydroxyindoleacetic acid, 5-hydroxyindoleacetaldehyde or phenylacetic acid, phenylacetaldehyde) were extracted and quantified by liquid scintillation counting procedures. Incubations were done in triplicate and incubations including pheneizine a known MAO inhibitor were included as controls and for comparison. The percent inhibition of monoamine oxidase-A or monoamine oxidase-B activity compared to controls containing no experimental material was calculated.

The next assay has as its target T2, monoamine oxidase-A (Rattus norvegicus, UniProt P21396).
T2 construct: homogenates of rat brain; from tissue; host or cells: rat brain homogenate
T2 sequence (P21396 1-526): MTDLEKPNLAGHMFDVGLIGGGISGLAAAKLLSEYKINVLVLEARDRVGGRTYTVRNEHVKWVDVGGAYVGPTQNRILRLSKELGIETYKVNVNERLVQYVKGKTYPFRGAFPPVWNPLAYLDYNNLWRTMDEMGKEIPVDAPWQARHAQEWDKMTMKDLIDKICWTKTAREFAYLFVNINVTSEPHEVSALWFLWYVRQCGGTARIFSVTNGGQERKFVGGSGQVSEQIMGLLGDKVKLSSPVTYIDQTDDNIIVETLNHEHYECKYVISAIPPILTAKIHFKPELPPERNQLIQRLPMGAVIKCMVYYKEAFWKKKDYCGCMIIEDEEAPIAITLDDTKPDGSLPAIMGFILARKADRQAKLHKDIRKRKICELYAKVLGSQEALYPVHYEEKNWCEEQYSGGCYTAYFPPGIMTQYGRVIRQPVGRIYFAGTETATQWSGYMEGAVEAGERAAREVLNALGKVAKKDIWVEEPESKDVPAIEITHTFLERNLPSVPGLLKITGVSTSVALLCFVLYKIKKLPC
Put plainly: in vitro monoamine oxidase-A inhibiting activity (radiochemical, 5-hydroxytryptamine substrate). The format is biochemical. The note with it: read-out: inhibition of monoamine oxidase A activity. As to the method:
as §1, §2

Assay [1] deals with choline uptake in rat brain synaptomes. Put plainly: choline uptake in rat brain synaptosomes (Example 2). It counts as biochemical. The note with it: mean ± SE, n = 4. The text has this:
Example 2 is a comparison of several batches of Rb1 extract, an extract of total ginsenosides (TS) containing 25% Rb1, 19.4% Rc1 and 21.6% Rg1+Re, and HT1001 on choline uptake in rat brain synaptomes. The Rb1 tested had greater than 98% purity. Rb1-52, Rb1-53 and Rb1-54 represent three different batches of Rb1.

Another assay concerns PC12 cells. Briefly: neurite outgrowth in PC12 cells. The format is cell-based. The note with it: seven days after treatment. As to the method:
A study of the neurotrophic effects of HT1001 and some pure ginsenosides was conducted. A new mechanism of action for HT1001 was shown, which is the stimulation of neurite outgrowth in a PC12 cell line. […] The beneficial effects (prevention/treatment) of HT-1001 may apply to degenerative diseases such as senile dementia, Parkinson's disease, Alzheimer's disease, multi-infarct dementia, etc. Alzheimer's disease (AD) is associated with degeneration of cholinergic nerve tracts including projections from the basal forebrain to the cortex and hippocampus. The PC12 (pheochromocytoma) cell line is one of the models for the study of the development of these nerve tracts. The cell line is phenotypically a chromaffin cell line, but can be induced to express adrenergic and cholinergic markers as well. This model has the advantages that (1) it is an immortalized cell line, (2) it is sensitive to, but not dependent upon, NGF for survival, and (3) it shares many properties in common with the central cholinergic neurons of the basal forebrain. It has been noted that PC12 cells are not sensitive to all of the trophic factors that central cholinergic neurons respond to, whereas central cholinergic neurons respond to all trophic factors that PC12 cells respond to. […] The cellular responses to Nerve Growth Factor (NGF) and samples were determined by counting the number of cells containing processes in PC12 cells. […] The cells and neurites were counted as follows: The cells with circular or global shape and no neurite outgrowth were scored as 0 (S0). […] Cells with more than two small neurites on the cell bodies were scored as S2. Cells with one or two neurites with a length of at least two times diameter as their body were scored as S3. Cells with more than two long neurites were scored as S4. The neurite index was calculated as below: Neurite index (In)=total neurite Score (ΣS)/total cell number (.[…] is the cell number of every cell field. The test samples included: […]

In another assay the test system is rats. Put plainly: Morris water maze, learning and memory, scopolamine induced amnesia. The note with it: for mean latency: scopolamine 2 mg/kg, all scopolamine treated animals; for memory effect of scopolamine treatment: 2 mg/kg. It counts as in vivo, rat. The source says: First, we studied the effects of HT1001 on Learning and Memory. […] As HT1001 is a mixture of ginsenosides, it may not have the same properties as pure Rb1. […] Rats are required to learn the location of a hidden platform in a swimming pool. […] The effects of HT1001 on memory can also be examined in scopolamine induced amnesia. If HT1001 enhances memory it should protect against memory loss in scopolamine treated animals.
The Morris water maze task was based on methods previously described (Pitsikas et al, Pharmacol. Biochem. Behav. 47: 95-99 (1994); Smith et al, Psychopharmacol. 114: 651-656 (1994)). The apparatatus consisted of a circular pool (1.7 m diameter, 35 cm deep) which contained water (30° C.) made cloudy by the presence of powdered milk. A moveable platform (10 cm×11.5 cm and 20 cm tall) was placed in the pool such that it was submerged by 3 cm and could not be seen. Each trial involved placing the rat in the pool in one of the four equally spaced quadrants in which the pool was divided. Visual cues consisting of large posters were placed on the walls of the room in which the experiment was conducted, and the experimenters maintained established positions throughout each experiment. During the learning period, animals were allowed to swim freely until they found the escape platform. […] During the initial learning period, all rats were tested sequentially and were given 4 trials per day during which the escape platform was located in a fixed position in the center of the pool. During the scopolamine trials rats were tested sequentially three times on cach day with the three trials being performed between 30 and 45 minutes following scopolamine or saline injection, The latency to reach the platform was recorded.
Experimental Design for Learning and Memory Testing
The specific aim of the experiment was to test if HT1001 affected the acquisition, retention and/or recall of a new task in the presence of scopolamine-induced amnesia. Rats were initially divided into two groups and fed either water (0.5 ml) or HT1001 (200 mg/kg/day in 0.5 ml water by gavage) for the duration of the experiment. Eight days after the initiation of water or HT1001 administration, rats were given the task of learning the position of a platform concealed at the center of the Morris water maze. The rats were placed in the pool 4 times per day for 5 days and the time required to find the platform was recorded (maximum duration 300 seconds). Latency became shorter as the rats learned the task. On day 14, the two groups of rats were further subdivided into four groups. […] In each instance the time to locate the platform (latency) was recorded. […]

On to `NNCCc1ccccc1` [phenylzine], for which the inhibition at 100 µM on monoamine oxidase-B stood at 93%; at monoamine oxidase-A, 97.5%.

As for `CC(C)=CCC[C@](C)(O[C@@H]1O[C@H](CO[C@@H]2O[C@H](CO)[C@@H](O)[C@H](O)[C@H]2O)[C@@H](O)[C@H](O)[C@H]1O)[C@H]1CC[C@]2(C)[C@@H]1[C@H](O)C[C@@H]1[C@@]3(C)CC[C@H](O[C@@H]4O[C@H](CO)[C@@H](O)[C@H](O)[C@H]4O[C@@H]4O[C@H](CO)[C@@H](O)[C@H](O)[C@H]4O)C(C)(C)[C@@H]3CC[C@]12C` [Rb1-52, ginsenoside Rb1], the choline uptake in assay [1] (0.0011 mg/l) was 108 ± 5.7 % of control; in assay [1] (0.011 mg/l) it was 108 ± 4.4 % of control; in assay [1] (0.11 mg/l) it was 108 ± 5.8 % of control; in assay [1] (1.1 mg/l) it was 109 ± 5.4 % of control; in assay [1] (11 mg/l), 111 ± 3.7 % of control.

For Nerve Growth Factor [NGF], the “neurite outgrowth (FIG. 29)” value in the assay with PC12 cells is given as “increased neurite outgrowth in PC12 cells in a dose-dependent manner”.

For `CN1[C@@H]2C[C@@H](OC(=O)[C@H](CO)c3ccccc3)C[C@H]1[C@@H]1O[C@@H]12` [scopolamine], the mean latency came to 39.5 ± 8.2 s in the assay on rats (day 14, third trial) and 18.4 ± 2.9 s in the assay on rats (day 16, third trial). The “memory effect of scopolamine treatment” value in the assay with rats (day 15) and with rats (day 17) was “produces a memory deficit” each time.

Regarding `CC(C)=CCC[C@](C)(O[C@@H]1O[C@H](CO[C@@H]2O[C@H](CO)[C@@H](O)[C@H](O)[C@H]2O)[C@@H](O)[C@H](O)[C@H]1O)[C@H]1CC[C@]2(C)[C@@H]1[C@H](O)C[C@@H]1[C@@]3(C)CC[C@H](O[C@@H]4O[C@H](CO)[C@@H](O)[C@H](O)[C@H]4O[C@@H]4O[C@H](CO)[C@@H](O)[C@H](O)[C@H]4O)C(C)(C)[C@@H]3CC[C@]12C` [Rb1-54, ginsenoside Rb1], the choline uptake in assay [1] (0.0011 mg/l) is reported as 108 ± 3 % of control; in assay [1] (0.011 mg/l) it was 110 ± 3.4 % of control; in assay [1] (0.11 mg/l), 110 ± 2.6 % of control; in assay [1] (1.1 mg/l) it was 112 ± 1.2 % of control; in assay [1] (11 mg/l) it was 111 ± 2.6 % of control.

Turning to `CC(C)=CCC[C@](C)(O[C@@H]1O[C@H](CO[C@@H]2O[C@H](CO)[C@@H](O)[C@H](O)[C@H]2O)[C@@H](O)[C@H](O)[C@H]1O)[C@H]1CC[C@]2(C)[C@@H]1[C@H](O)C[C@@H]1[C@@]3(C)CC[C@H](O[C@@H]4O[C@H](CO)[C@@H](O)[C@H](O)[C@H]4O[C@@H]4O[C@H](CO)[C@@H](O)[C@H](O)[C@H]4O)C(C)(C)[C@@H]3CC[C@]12C` [Rb1-53, ginsenoside Rb1], the choline uptake is recorded as 106 ± 1.3 % of control in assay [1] (0.0011 mg/l); 109 ± 3.6 % of control in assay [1] (0.011 mg/l); 109 ± 3.8 % of control in assay [1] (0.11 mg/l); 112 ± 4.8 % of control in assay [1] (1.1 mg/l); 114 ± 2.5 % of control in assay [1] (11 mg/l).
